Source: US11857536B2, “Glucokinase activator for treating diabetes with renal impairment” (HUA Medicine (Shanghai) Ltd., priority 2020, dated 2024)
Where two headings read alike, the source gives them in different places.

Assay: Phase I open-label, parallel-group, single oral dose pharmacokinetic study of dorzagliatin in ESRD and healthy subjects
Assay type: in vivo, human
Conditions: single 25 mg oral dose; for AUC(0-inf) / AUC(0-t) / Cmax: human, po, 25 mg; for Cmax: read-out: Cmax, LS mean
Excerpt: This phase I study was to access the pharmacokinetics and safety of a single dose of dorzagliatin in renally impaired and heathy subjects. The study was divided into two phases: Phase 1 having two groups (P1 and H) and Phase 2 having three groups (P2, P3, and P4). Phase 2 would start after the completion of Phase 1 and determining an increase of ≥100% in the average AUC (AUClast or AUCinf) of the ESRD subjects than that of the healthy subjects in Phase 1. The ESRD subjects of Group P1 were matched closely with the healthy subjects as to their sexes, ages (±5 yrs), and BMIs (±15%).
In Phase 1, eligible subjects were admitted to a clinical research center (CRC) on Day −2 or −1. On Day −1, the subjects had no additional food after a standard dinner for at least 10 h. In the morning of Day 1, the subjects received dorzagliatin (25 mg) orally with empty stomach. […] Blood samples were collected at the following time points: within 60 min pre-dose; and at 0.25, 0.5, 1, 1.5, 2, 2.5, 3, 4, 6, 8, 12, 24, 36, 48, and 72 h post-dose. Urine samples for the pharmacokinetic (PK) analysis were collected at the following time points: within 60 min pre-dose; and at 0˜4, 4˜8, 8˜12, 12˜24, 24˜36, 36˜48, and 48˜72 h post-dose. The samples were analyzed using LC-MS/MS. The plasma concentration-time data for dorzagliatin were analyzed using a non-compartmental model to obtain PK parameters, including Cmax, AUClast, AUCinf, Cmax,u, AUClast,u, and AUCinf,u. An ANOVA analysis was performed on the data between H and P1 groups.

CC(C)C[C@@H](C(=O)Nc1ccn(C[C@@H](O)CO)n1)N1CC(Oc2ccccc2Cl)=CC1=O [dorzagliatin, (S)-2-(4-(2-chlorophenoxy)-2-oxo-2,5-dihydro-1H-pyrrol-1-yl)-N-(1-((R)-2,3-dihydroxypropyl)-1H-pyrazol-3-yl)-4-methylpentanamide]
Cmax, u, LS mean (Group H (healthy), fasted): 29.5 ng/mL
AUClast, LS mean (Group H (healthy), fasted, plasma): 1857 ng·h/mL
Cmax, u, LS mean (Group P1 (ESRD), fasted): 27.5 ng/mL
AUC(0-inf) (plasma, Group H (healthy), fasted, plasma, read-out: AUCinf, LS mean): 1890 ng·h/mL
AUC(0-inf) (plasma, Group H (healthy), fasted, read-out: AUCinf, u, LS mean): 126 ng·h/mL
AUC(0-t) (plasma, Group H (healthy), fasted, read-out: AUClast, u, LS mean): 124 ng·h/mL
Cmax (plasma, Group H (healthy, eGFR ≥90), fasted, plasma): 442 ng/mL
AUC(0-inf) (plasma, Group P1 (ESRD), fasted, plasma, read-out: AUCinf, LS mean): 2070 ng·h/mL
AUC(0-t) (plasma, Group P1 (ESRD), fasted, plasma, read-out: AUClast, LS mean): 2060 ng·h/mL
AUC(0-inf) (plasma, Group P1 (ESRD), fasted, read-out: AUCinf, u, LS mean): 163 ng·h/mL
AUC(0-t) (plasma, Group P1 (ESRD), fasted, read-out: AUClast, u, LS mean): 162 ng·h/mL
Cmax (plasma, Group P1 (ESRD, eGFR <15, no dialysis), fasted, plasma): 356 ng/mL
Cmax, u GMR (P1/H) (ratio ESRD/healthy): 0.93
AUCinf in ESRD subjects (Group P1) compared to healthy subjects (Group H), in words: substantially the same
Cmax in ESRD subjects (Group P1) compared to healthy subjects (Group H), in words: slightly decreased
Difference in AUC between Groups H and P1, in words (ANOVA, preset criterion AUC increase >100% not met): no significant difference
